The record followed here is US20230257423A1, “COMPOSITIONS FOR TREATING EPITHELIAL BARRIER FUNCTION DISORDERS” (ENTEROME, priority 2020, published 2023).

Test [1] concerns Monocyte-derived Dendritic Cells. Put plainly: AlphaLISA IL10 secretion by dendritic cells. Conditions: for IL-10 secretion from DCs in co-stimulation with TLR activators: LPS 100 ng/ml or FIMH 10 μg/ml, mean of 3 MoDC donors, FIG. 9. The class given is cell-based, human. How it is done:
Dendritic Cells (DCs) were prepared from PBMC (Buffy Coat) and differentiated with GM-CSF (D 1:10000; =5 μl/50 ml) and IL-4 (D 1:5000; =10 μl/50 ml).
In this test, 30,000 cells/well were seeded in complete IMDM media (2 mM L-glutamine, 50 IU/mL penicillin, […] streptomycin, 10 mM Hepes and 10% heat-inactivated foetal calf serum) in 96 wells plates 24h before activation (and kept in a humidified 5% CO2 atmosphere at 37° C.). Pre-purified, or HPLC-eluted, fractions as well as EB7020 chemically synthetized and various controls were added to reporter cells at 10% vol/vol to a final volume of 100 μl.
AlphaLisa (Perkin Elmer) was realized on supernatant according the supplier protocol (for complete references: AlphaLISA® Research Reagents Human Interleukin 10 (IL10) Kit Product No.: AL218 C/F sold by PerkinElmer).
On the technique in general: Alpha assays give light when donor and acceptor beads are brought close together.

A further test relates to PBMC derived DCs. Briefly: Array (transcriptomics) on PBMC derived DCs. Type of test: cell-based, human. Also on record: SLC39A14 gene expression / IL6 gene expression / CCL1 gene expression / CCL8 gene expression / TNF-α gene expression: unit not given here. Conditions: 3 donors, 6h, TNF-α 10 ng/ml, PHA 3 μg/ml, LPS 3 ng/ml, PAM3CSK4 10 ng/ml, MDP 5 μg/ml. The procedure: DCs from three different donors were seeded at 1.0×10^5 DCs/well in a 48 well plate in 0.5 ml of complete IMDM. The effect of the active fractions of the F4 clone was compared to the same fractions purified from the negative control (pBAD-fractions). TNF-α (10 ng/ml), PHA (3 μg/ml), LPS (3 ng/ml), PAM3CSK4 (10 ng/ml), and MDP 5 μg/ml were used as control.
Data were generated and analyzed using Spotfire software.
Transcriptomics was carried out on PBMC derived DCs from 3 donors.
DCs were stimulated (6h) with: • TNFα, PHA, LPS, PAM3CSK4, MDP=Positive control • F13, F25=HPLC fractions obtained from the complemented and functional F4D5-MsbA1-A2 clone • F4D5-pBAD-F13, F4D5-pBAD-F25=HPLC fractions obtained from the F4D5-pBADclone (negative control)
Data analysis was realised using TIBCO Spotfire software. The F4 fractions (from both positive and negative clones) were analysed individually and compared to known agonists (TNFα, PHA, LPS, PAM3CSK4, MDP).

`CC(=O)NC1C(OP(=O)(O)O)OC(CO)C(O)C1OC(C)C(=O)NC(C)C(=O)NC(CCC(=O)NC(CCCC(N)C(=O)O)C(=O)O)C(=O)O` (stereo not shown) [EB7020, M-Tri-DAP monophosphate]: in test [1], the “IL-10 secretion from DCs in co-stimulation with TLR activators” value (shortened to “IL-10 secretion from DCs”) is given as “Synergy”. For the same compound, the “IL-10 secretion from human DCs” value in test [1] (chemically synthesized compound, in presence of LPS, FIG. 8) is recorded as “IL-10 secretion is induced”.

For `CC(=O)N[C@H]1[C@@H](OP(=O)(O)OP(=O)(O)OC[C@H]2O[C@@H](n3ccc(=O)[nH]c3=O)[C@H](O)[C@@H]2O)O[C@H](CO)[C@@H](O)[C@@H]1O[C@H](C)C(=O)N[C@@H](C)C(=O)N[C@H](CCC(=O)N[C@@H](CCC[C@@H](N)C(=O)O)C(=O)O)C(=O)O` [EB7021, UDP-M-Tri-DAP], the “IL-10 secretion from DCs” value in test [1] is reported as “Synergy”.

Turning to `CC(=O)NC1C(OP(=O)(O)OP(=O)(O)OC[C@H]2O[C@@H](n3ccc(=O)[nH]c3=O)C(O)C2O)OC(CO)C(O)C1OC(C)C(=O)NC(C)C(=O)NC(CCC(=O)NC(CCCC(N)C(=O)O)C(=O)NC(C)C(=O)O)C(=O)O` (stereo partly shown) [EB7022, UDP-M-Tetrapeptide], the “IL-10 secretion from DCs” value in test [1] is given as “Synergy”.

`CC(=O)N[C@@H]1[C@@H](O[C@H](C)C(=O)N[C@@H](C)C(=O)N[C@H](CCC(=O)O)C(N)=O)[C@H](O)[C@@H](CO)O[C@H]1O` [MDP]: in the test on PBMC derived DCs, the CCL1 gene expression came out at 3.1, the CCL8 gene expression is 4.1, the IL6 gene expression is given as 9.4 and the PERP gene expression amounted to 1.6. In the test on PBMC derived DCs, this compound had a PMP22 gene expression of 1.0, an SLC39A14 gene expression of 0.9 and a TNF-α gene expression of 3.5.

In the test with PBMC derived DCs, PAM3CSK4 came in with a CCL1 gene expression of 30.6, a CCL8 gene expression of 64.8, an IL6 gene expression of 718.1 and a PERP gene expression of 2.6. In the test on PBMC derived DCs, the PMP22 gene expression came out at 1.0, the SLC39A14 gene expression was found to be 1.6 and the TNF-α gene expression was found to be 28.4.

In the test on PBMC derived DCs, TNF-α came in with a CCL1 gene expression of 4.2, a CCL8 gene expression of 11.2, an IL6 gene expression of 32.9 and a PERP gene expression of 1.0. In the test on PBMC derived DCs, this compound had a PMP22 gene expression of 0.8, an SLC39A14 gene expression of 1.2 and a TNF-α gene expression of 5.6.
